Assay results from US20030170245A1, “Activation of matriptase and diagnostic and therapeutic methods based thereon” (priority 2002, published 2003).

Experiments:
[1] = system: mRNA levels for matriptase or HAI-1; test: mRNA levels in estrogen-depleted MCF-7 cells after hormone treatment; format: cell-based, human; conditions: data not shown
Procedure: Northern blotting—Total RNA was extracted from cell lines with RNAzol reagent (Tel-Test, Inc., Friendswood, Tex.) according to the manufacturer's instructions. Ten micrograms of total RNA from each cell line was resolved by electrophoresis on a 1.2% phosphate-buffered agarose gel containing 2M formaldehyde. RNA was subsequently transferred to hybond-N nylon membranes (Amersham Pharmacia Biotech, Buckinghamshire, England) and hybridized to ^32P-labeled riboprobes at 65° C. for 36 hours, followed by three washes in 0.1×SSC/0.1%SDS at 80° C. for 30 minutes each to remove unbound probe. To generate the labeled riboprobes, the coding sequences of Matriptase and HAI-1 were cloned into the pcDNA3.1 vector (Invitrogen, San Diego, Calif.), and were linearized with an appropriate restriction enzyme just 5′ of the coding sequences. These linearized vectors were used in in vitro SP6 RNA polymerase reactions with ^32P-UTP (3000 Ci/mmol, NEN, Boston, Mass.) to generate labeled antisense riboprobes. To control for approximately equal loading of RNA from each cell line, labeled riboprobes directed against the message of the ribosomal protein 36B4 were generated in a similar fashion, except that a vector containing approximately 500 bp of the coding sequence was used. […]

matriptase [2] = test: Induction of matriptase activation in A1N4 mammary epithelial cells (immunoblot of two-chain form with mAb M69); format: cell-based, human; conditions: for induction of matriptase activation (two-chain form): A1N4 cells, qualitative; for concentration at which maximal activation of matriptase was achieved: intact A1N4 cells
Procedure: FIG. 22 LPA and S1P induce the activation of matriptase.
(§1) Immunoblotting analysis: Immunobloting was conducted as previously described. Proteins were separated by 10% SDS-PAGE, transferred overnight to nitrocellulose sheets (Schleicher & Schuell, Keene, N.H.) or polyvinylidene fluoride (PVDF) and subsequently probed with mAb, as indicated. Immuno-reactive polypeptides were visualized using peroxidase-labeled anti-rat immunoglobulin and the ECL detection system (NEN, Boston, Mass.).
Induction of matriptase activation in A1N4 mammary epithelial cells: To serum starve 184 A1N4 cells, the cells were plated at 50-60% confluence, and maintained for 48-72 hrs in medium containing 0.5% serum. The activation of matriptase was then induced by incubating the cells with Iscove's Modified Dulbecco's Medium (IMEM), containing serum, as indicated in the Figure legend. Cells were then scrapped in PBS, and pelleted by centrifigation with a 5 min spin (1500×g). The cell pellets were lysed on ice for 20 min in lysis buffer (1% TritonX-100 in phosphate buffered saline). Cellular debris were removed by centrifugation for 10 min at 14,000×g. Equal protein amounts, as determined by the BCA protein micro assay (Pierce), were resolved under non-reducing, non-boiled conditions, by sodium dodecyl sulfate-polyacrylamide gel electrophoresis (SDS-PAGE), and electroblotted onto PVDF membranes (Millipore).

[3] = system: A1N4 human mammary epithelial cells; test: Immunofluorescence of actin cytoskeleton rearrangement in A1N4 cells; format: cell-based
Procedure: FIG. 23 Immunofluorescence of actin rearrangement and activated matriptase following LPA and SIP stimulation.
Immunofluorescence: Cells were fixed with 2% paraformaldehyde for 10 min. The two-chain form matriptase was detected with mAb M69 and total matriptase was detected with mAb M32 for 1 hr at room temperature. This was followed by an 1 hr incubation with 1:200 dilution of FITC-conjugated goat anti-mouse (Jackson Immunoresearch, PA). Cells were viewed on a Zeiss microscope, and photographed with Kodak film.

matriptase [4] = target: T1, matriptase (Homo sapiens, UniProt Q9Y5Y6); test: Gelatin zymography of matriptase and matriptase/HAI-1 complex; format: biochemical; conditions: 1 mg/ml gelatin zymogram
T1 construct: separated into two groups of polypeptides with apparent sizes of 45-kDa (A chain) and 25-kDa (B chain); from tissue; host or cells: human milk
T1 sequence (Q9Y5Y6 190-614 limits assumed): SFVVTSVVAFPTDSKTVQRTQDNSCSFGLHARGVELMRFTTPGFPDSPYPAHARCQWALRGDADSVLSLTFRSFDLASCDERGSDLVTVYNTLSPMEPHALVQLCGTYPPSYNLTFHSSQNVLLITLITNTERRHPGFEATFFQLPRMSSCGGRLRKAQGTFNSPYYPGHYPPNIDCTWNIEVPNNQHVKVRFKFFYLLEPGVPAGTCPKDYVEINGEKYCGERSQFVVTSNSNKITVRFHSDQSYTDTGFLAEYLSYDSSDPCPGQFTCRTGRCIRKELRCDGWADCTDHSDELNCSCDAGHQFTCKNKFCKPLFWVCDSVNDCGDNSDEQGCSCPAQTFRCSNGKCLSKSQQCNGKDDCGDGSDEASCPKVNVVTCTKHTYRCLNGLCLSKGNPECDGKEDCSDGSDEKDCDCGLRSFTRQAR
T1 sequence (Q9Y5Y6 615-854 limits assumed): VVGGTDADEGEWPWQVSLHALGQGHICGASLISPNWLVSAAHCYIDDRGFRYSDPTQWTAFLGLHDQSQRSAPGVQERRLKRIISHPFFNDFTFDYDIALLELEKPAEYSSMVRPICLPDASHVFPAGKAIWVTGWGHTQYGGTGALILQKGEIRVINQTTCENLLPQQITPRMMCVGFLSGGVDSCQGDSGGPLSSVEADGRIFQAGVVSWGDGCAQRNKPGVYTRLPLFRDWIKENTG
Text: (§2) FIG. 11 Inhibition of matriptase by HAI-1. Matriptase and HAI-1 were isolated from human milk by anti-matriptase mAb 21-9 immunoaffinity chromatography, as described previously, and were maintained in an uncomplexed status in elution buffer, 0.1 M glycine, pH 2.4.

matriptase [5] = target: T1, matriptase; test: Proteolytic activity assay (cleavage rate of fluorescent substrate BOC-Gln-Ala-Arg-AMC); format: biochemical; conditions: pH 8.0, 37° C.
Procedure: as §2
[…] Louis), as a substrate. The rate of cleavage was determined with a fluorescence spectrophotometer (Hitachi, F-4500).

matriptase [6] = target: T1, matriptase; test: Binding of HAI-1 to matriptase (95-kDa complex formation, immunoblot with mAb 21-9)
Procedure: as §2, §1

## C[C@]12CC[C@@H]3c4ccc(O)cc4CC[C@H]3[C@@H]1CC[C@@H]2O [17β-estradiol]
[1]; 100 nM 17β-estradiol
  change in mRNA levels for matriptase or HAI-1: no change

## CCCCCCCCCCCCC/C=C/[C@@H](O)[C@@H](N)COP(=O)(O)O [S1P, shingosine 1-phosphate]
Matriptase [2]
  induction of matriptase activation (two-chain form): could mimic serum and LDL induced activation of matriptase
  concentration at which maximal activation of matriptase was achieved: 1 ng/mL
Matriptase [2]; S1P versus LPA
  potency in inducing the activation of matriptase relative to LPA: 100 fold
Matriptase [2]; after S1P addition
  time at which activation of matriptase started after addition: ≤ 5 min
  time to maximal activation of matriptase: ≤ 10 min
Matriptase [2]; molar value in brackets
  concentration at which maximal activation of matriptase was achieved: 2.6 nM
[3]
  actin cytoskeleton rearrangement (stress-fiber formation): induced actin cytoskelaton reorganization

## C=C1[C@@H](C)[C@H]2[C@H](Cc3ccccc3)NC(=O)[C@]23[C@H](OC(C)=O)/C=C/[C@@](C)(O)C(=O)[C@@H](C)C/C=C/[C@H]3[C@@H]1O [cytochalasin D]
Matriptase [2]; pretreatment of cells before S1P
  block of S1P-induced activation of matriptase: failed to block the activation of matriptase by S1P

## CC(=O)[C@H]1CC[C@H]2[C@@H]3CCC4=CC(=O)CC[C@]4(C)[C@H]3CC[C@]12C [progesterone]
[1]; 100 nM 17β-estradiol plus 100 nM progesterone
  change in mRNA levels for matriptase or HAI-1: no change

## Ceramide1-P
Matriptase [2]
  induction of matriptase activation (two-chain form): induced the activation of matriptase although at higher concentration than S1P

## lysophosphatidic acid [LPA]
Matriptase [2]
  induction of matriptase activation (two-chain form): could mimic serum and LDL induced activation of matriptase
  concentration at which maximal activation of matriptase was achieved: 1000 ng/mL
[3]
  actin cytoskeleton rearrangement (stress-fiber formation): induced actin cytoskelaton reorganization

B1: HAI-1: type-1, integral membrane, Kunitz-type serine protease inhibitor, cognate inhibitor of matriptase (protein, UniProt O43278 36-529, looked up)
Kunitz-type protease …: GPPPAPPGLPAGADCLNSFTAGVPGFVLDTNASVSNGATFLESPTVRRGWDCVRACCTTQNCNLALVELQPDRGEDAIAACFLINCLYEQNFVCKFAPREGFINYLTREVYRSYRQLRTQGFGGSGIPKAWAGIDLKVQPQEPLVLKDVENTDWRLLRGDTDVRVERKDPNQVELWGLKEGTYLFQLTVTSSDHPEDTANVTVTVLSTKQTEDYCLASNKVGRCRGSFPRWYYDPTEQICKSFVYGGCLGNKNNYLREEECILACRGVQGGPLRGSSGAQATFPQGPSMERRHPVCSGTCQPTQFRCSNGCCIDSFLECDDTPNCPDASDEAACEKYTSGFDELQRIHFPSDKGHCVDLPDTGLCKESIPRWYYNPFSEHCARFTYGGCYGNKNNFEEEQQCLESCRGISKKDVFGLRREIPIPSTGSVEMAVAVFLVICIVVVVAILGYCFFKNQRKDFHGHHHHPPPTPASSTVSTTEDTEHLVYNHTTRPL
Matriptase [4]
  gelatinolytic activity of the 95-kDa matriptase/HAI-1 complex: only trace amounts of gelatinolytic activity
Matriptase [5]
  rate of cleavage of synthetic fluorescent substrate by matriptase after HAI-1 binding: drastically decreased
Matriptase [6]; pH 8.0, 37° C.
  incubation time after which uncomplexed matriptase was undetectable by immunoblot: 30 min
Matriptase [6]; pH raised to 8.0, 37° C.
  formation of 95-kDa matriptase/HAI-1 complex: rapidly occurred
